Earlier results, collected in patent publication US8679507B2, “Testosterone olfaction” (priority 2012, dated 2014).

Test system: human females
Settings: female college students, upper lip exposed; follicular phase

C[C@]12CC[C@@H](O)C[C@@H]1CC[C@@H]1[C@@H]2CC[C@]2(C)C=CC[C@@H]12 [androstenol]
frequency of the LH pulse: decreased
